Assay results as given in paper PMC9231284, “Hesperidin Bioavailability Is Increased by the Presence of 2S-Diastereoisomer and Micronization—A Randomized, Crossover and Double-Blind Clinical Trial” (Nutrients, 2022).

Columns and labels:
[1] = set-up: method as in PMID 18058792; conditions: rats, intravenous administration of racemic hesperetin; cited from earlier work
[2] = First phase: relative urinary hesperidin excretion in 24 h urine after 500 mL orange juice with 345 mg hesperidin; format: in vivo, human; conditions: for Relative urinary hesperidin excretion, low excretors: N=3, mean ± SD
Experimental: The study consisted of two phases. In the first phase, 30 volunteers consumed 500 mL of orange juice (OJ) with 345 mg of hesperidin [9], and the levels of hesperidin excreted in urine were determined. The OJ used in the first phase of the study was the hesperidin OJ used in previous studies conducted by our group. The objective of this first phase of the study was to select volunteers with intermediate hesperidin metabolite levels excreted in urine to reduce the variability in the results in the second phase of the study.
For the first phase of the study—after at least 8 h of fasting—the participants’ urine was collected before the intake of 500 mL of OJ (basal urine) and after the intake of the OJ for 24 h, accumulated in a single volume urine (Figure 1). Urine samples were homogenized and centrifuged at 1900 g for 10 min at 4 °C, and the supernatant was collected and subdivided into aliquots which were stored at −80 °C until analysis.
Relative urinary hesperidin excretion values (% of hesperidin ingested) obtained in the first phase of the study were used to select the participants for the second phase of the study. It was calculated by the ratio between the sum of hesperidin metabolites and the amount of hesperidin consumed by the participants (345 mg). With these values, 18 volunteers with intermediate relative urinary hesperidin excretion values were selected for the second phase.
To obtain the main and secondary outcomes, the urinary levels of hesperidin metabolites and catabolites at baseline—before consuming the hesperidin supplement—and up to 24 h after consuming the hesperidin supplement in four urine fractions (0–3 h; 3–6 h; 6–8 h; 8–24 h) were determined. In addition, the serum levels of hesperidin metabolites and catabolites at baseline and at 2 h, 3 h, 4 h, 5 h, 6 h, 7 h, 8 h and 24 h after consuming the hesperidin supplement were quantified. To obtain the relative urinary hesperidin excretion in the first phase of the study, the urinary levels of hesperidin metabolites before consuming the OJ and in the 24 h urine after consuming the hesperidin supplement were determined.
Hesperetin and related metabolites were determined in urine and serum samples by liquid chromatography coupled to triple quadrupole mass spectrometry (LC-QqQ) using a UHPLC 1290 Infinity II Series coupled to a QqQ/MS 6490 Series (Agilent Technologies, Palo Alto, CA, USA) and an ACQUITY UPLC BEH C18 (100 × 2.1 mm; 1.8 µm) column (Waters, Milford, MA, USA). Mobile phase A was 100% water with 0.5% acetic acid and 10 mM ammonium acetate, and mobile phase B was 100% methanol. The column temperature was set at 45 °C and the injection volume was 5 µL. The triple quadrupole operated in negative electrospray ionization mode (ESI-). The source conditions were set at 25 psi for the nebulizer gas, 240 °C for the gas temperature, 17 L/min for the gas flow, 250 °C for the sheath gas temperature, 12 L/min for the sheath gas flow, 3500 V for the capillary voltage and 0 V for the nozzle voltage. The standards used for quantification purposes were: Hesperetin and Hesperidin (Extrasynthese, Genay, France); Hesperetin 7-O-beta-D-glucuronide, Hesperetin 3-O-beta-D-glucuronide and Hesperetin 7,3′-di-O-beta-D-glucuronide (Toronto Research Chemicals; North York, ON, Canada); Hesperitin 7-O-sulfate (Santa Cruz Biotechnology, Dallas, TX, USA). Hesperitin-d3 and Diosmetin 7-O-β-D-Glucuronide-d3 (Toronto Research Chemicals; North York, ON, Canada) were used as internal standards. […]

[3] = set-up: method as in PMID 28747329, PMID 26861391, PMID 30669635; conditions: humans, oral; cited from earlier work
[4] = cited from earlier work

| Compound | AUC of R-diastereoisomer compared to S-diastereoisomer [1] | Relative urinary hesperidin excretion, low excretors [2] | Relative urinary hesperidin excretion, low excretors ([2]; listed as Hesperidin) | Relative urinary hesperidin excretion, high excretors ([2]; N=4, mean ± SD) | Relative urinary hesperidin excretion, intermediate excretors ([2]; N=21, mean ± SD) | Mean relative urinary hesperidin excretion determined as hesperetin or hesperetin conjugates in urine ([2]; all participants N=28, mean ± SD) | Share of ingested hesperidin that reaches the large intestine [3] | Solubility [4] | Water solubility [4] |
| --- | --- | --- | --- | --- | --- | --- | --- | --- | --- |
| COc1ccc([C@H]2CC(=O)c3c(O)cc(O)cc3O2)cc1O [R-diastereoisomer, hesperetin] | 3.2 fold |  |  |  |  |  |  |  |  |
| COc1ccc([C@@H]2CC(=O)c3c(O)cc(O[C@@H]4O[C@H](CO[C@@H]5O[C@@H](C)[C@H](O)[C@@H](O)[C@H]5O)[C@@H](O)[C@H](O)[C@H]4O)cc3O2)cc1O [hesperidin, hesperetin-7-O-rutinoside] |  | 0.74 ± 0.11% | 0.743 ± 0.112% | 6.06 ± 1.46% | 2.31 ± 1.01% | 2.67 ± 1.79% | 70% | low | poor |
